Results reported in US10517842B2, “Methods of modulating miRNA levels and compositions for use in the same” (Los Angeles Biomedical Research Institute at Harbor-UCLA …, priority 2017, dated 2019).

What was measured:
COL1 = experiment: Immunoblotting, protein expression in LSMC; assay type: cell-based, human; details: Tranilast 200 μM, 48 h, Western blot, P<0.05
Experimental: (§1) Total protein isolated from LSMC treated with Tranilast (200 μM) at sub-confluence for 48 hrs and from tissues was subjected to immunoblotting as previously described (Chuang et al., “miR-29c induction contributes to downregulation of vascular extracellular matrix proteins by glucocorticoids,” American journal of physiology Cell physiology (2015) 309:C117-25). Specific antibodies generated against CCND1, COL3A1, TGF-β3 (Proteintech Group, Inc., Chicago, Ill.), CDK2, DNMT1 (Santa Cruz Biotechnology, Dallas, Tex.), COL1 (Fitzgerald Industries Intl., Acton, Mass.) and EZH2 (Cell Signaling Technology, Danvers, Mass.) were used to detect specific protein expression. The membranes were also stripped and probed with GAPDH antibody (Proteintech Group, Inc.) serving as loading control.

CDK2 = experiment: Immunoblotting, protein expression in LSMC; assay type: cell-based, human; details: Tranilast 200 μM, 48 h, Western blot, P<0.05
Experimental: as §1

COL3A1 = experiment: Immunoblotting, protein expression in LSMC; assay type: cell-based, human; details: Tranilast 200 μM, 48 h, Western blot, P<0.05
Experimental: as §1

TGF-β3 = experiment: Immunoblotting, protein expression in LSMC; assay type: cell-based, human; details: Tranilast 200 μM, 48 h, Western blot, P<0.05
Experimental: as §1

CCND1 = experiment: Immunoblotting, protein expression in LSMC; assay type: cell-based, human; details: Tranilast 200 μM, 48 h, Western blot, P<0.05
Experimental: as §1

EZH2 = experiment: Immunoblotting, protein expression in LSMC; assay type: cell-based, human; details: Tranilast 200 μM, 48 h, Western blot, P<0.05
Experimental: as §1

DNMT1 = experiment: Immunoblotting, protein expression in LSMC; assay type: cell-based, human; details: Tranilast 200 μM, 48 h, Western blot, P<0.05
Experimental: as §1

[1] = tested on: 3′UTR of COL3A1 in lung cancer cell line A549; experiment: 3′UTR luciferase reporter assay in A549; assay type: cell-based; details: Tranilast
leiomyoma xenografts = experiment: Leiomyoma xenograft mouse model (LSMC under the kidney capsule); assay type: in vivo, CB-17 SCID/beige mice; details: Tranilast 50 mg/kg/day i.p. daily for 3 weeks, mice
From the text: We injected primary leiomyoma cells under the kidney capsule of CB-17 SCID/beige mice using a 27 g needle as previously reported (Ishikawa et al., “Progesterone is essential for maintenance and growth of uterine leiomyoma,” Endocrinology (2010) 151: 2433-2442; Ono et al, “Paracrine activation of WNT/beta-catenin pathway in uterine leiomyoma stem cells promotes tumor growth,” Proceedings of the National Academy of Sciences of the United States of America (2013) 110: 17053-17058). After two weeks we excised the xenograft, fixed the tissue, embedded it in paraffin and obtained 5 μm sections for staining. […] This animal model is used to evaluate the efficacy of Tranilast on tumor initiation, progression, histology, and expression of miR-200c and miR-29c and their respective target genes.
Freshly isolated LSMC are injected under the kidney capsule of female ovariectomized CB-17 SCID/beige mice implanted with pellet containing estradiol (0.05 mg/90 d release) and progesterone (25 mg/60 d release) as previously reported (Ishikawa et al., “Progesterone is essential for maintenance and growth of uterine leiomyoma,” Endocrinology (2010) 151: 2433-2442; Ono et al, “Paracrine activation of WNT/beta-catenin pathway in uterine leiomyoma stem cells promotes tumor growth,” Proceedings of the National Academy of Sciences of the United States of America (2013) 110: 17053-17058). For injections of leiomyoma cells, freshly isolated cells from hysterectomy specimens are suspended in rat-tail collagen (type I) solution (BD Biosciences) at 1×10^6 cells/10 μl and grafted onto kidney capsule.
To determine the effects of Tranilast on tumor initiation, immediately after subcapsular injection of cells mice (10 per group) will be treated i.p. daily for 3 weeks with vehicle (1% DMSO) or Tranilast (50 mg/kg/day) (Kim et al., “Effects of tranilast and pentoxifylline in a mouse model of chronic asthma using house dust mite antigen,” The Journal of asthma: official journal of the Association for the Care of Asthma (2009) 46: 884-894) at which point the animals are sacrificed and tumors excised, weighed and measured and subjected for further analyses detailed below.
To determine tumor progression in an additional four groups (10/group), LMSC cells are injected under the kidney capsule and tumors are allowed to develop for five weeks. Mice are then injected i.p. daily for 3 more weeks with vehicle or Tranilast (50 mg/kg/day) (Kim et al., “Effects of tranilast and pentoxifylline in a mouse model of chronic asthma using house dust mite antigen,” The Journal of asthma: official journal of the Association for the Care of Asthma (2009) 46: 884-894) at which time the animals are sacrificed and tumors excised, weighed, measured and subjected for further analysis.
For tumor analysis, portions of tumors are allocated for RNA and protein extraction, and the remainder fixed in 4% neutral-buffered formalin and embedded in paraffin (FFPE) for histologic analysis. To assess the rate of collagen deposition, 5 μm cut paraffin sections are subjected to histologic analysis and stained with Masson's Trichrome and Sirius Red (Sigma-Aldrich), and images are analyzed by Image-Pro Plus software (Media Cybernetics) as described in detail in our prior publications (Khorram et al., “Nutrient restriction in utero induces remodeling of the vascular extracellular matrix in rat offspring,” Reproductive sciences (2007) 14: 73-80; Khorram et al., “In utero undernutrition in rats induces increased vascular smooth muscle content in the offspring, American journal of obstetrics and gynecology (2007) 196: 486.e481-488). For Immunohistochemistry, the sections are de-paraffinized in xylene, and heated in 0.01 M citrate buffer for 15 min in a microwave oven. Slides are then incubated in methanol containing 0.3% hydrogen peroxide. Slides are incubated with primary antibody or control serum, washed, and followed by application of secondary antibody. The chromogen used is diaminobenzidine (DAKO). […]

[2] = tested on: 3′UTR of CDK2 in lung cancer cell line A549; experiment: 3′UTR luciferase reporter assay in A549; assay type: cell-based; details: Tranilast
NF-kB = NF-kB luciferase reporter assay in LSMC; assay type: cell-based, human; details: Tranilast 200 μM, 48 hrs, vs DMSO set as 1
Experimental: The ratio of Firefly:Renilla was determined after treatment of Tranilast (200 μM) for 48 hrs and reported as relative luciferase activity as compared to DMSO which was independently set as 1. FIG. 13B: Graphical depiction of the NF-Kb (p65) binding elements in the miR-200c promoter. […] The results are presented as mean±SEM of at least three independent experiments using LSMC isolated from 3 patients.

In the case of `COc1ccc(C=CC(=O)Nc2ccccc2C(=O)O)cc1OC` [Tranilast, 2-[[3-(3,4-dimethoxyphenyl)-1-oxo-2-propenyl]amino]benzoic acid], the “COL1 expression, protein level” value (COL1) is reported as “significantly inhibited”, the “CDK2 expression, protein level” value (CDK2) is reported as “significantly inhibited” and the “COL3A1 expression, protein level” value (COL3A1) is reported as “significantly inhibited”. For the same compound, the “TGF-β3 expression, protein level” value (TGF-β3) was “significantly inhibited”, the “CCND1 expression, protein level” value (CCND1) was “significantly inhibited” and the “EZH2 expression, protein level” value (EZH2) was “significantly inhibited”. The “DNMT1 expression, protein level” value (DNMT1) was “significantly inhibited”, the “activity of luciferase reporter containing 3′UTR of COL3A1” value [1] was “Inhibits” and the “NF-kB signaling in xenograft” value (leiomyoma xenografts) was “inhibition”. The “cell proliferation (Ki-67 and PCNA labeling index)” value (leiomyoma xenografts) was “reduce”, the leiomyoma size (leiomyoma xenografts) was “shrinkage” and the “methytransferases (DNMT1) in xenograft” value (leiomyoma xenografts) was “inhibition”. The “miR-29c expression in xenograft” value (leiomyoma xenografts) was “up-regulate”, the “miR-200c expression in xenograft” value (leiomyoma xenografts) was “up-regulate” and the “rate of collagen deposition (Sirius Red staining)” value (leiomyoma xenografts) was “reduce”. The “activity of luciferase reporter containing 3′UTR of CDK2” value [2] was “Inhibits” and the “NF-kB signaling (NF-kB luciferase reporter activity)” value (NF-kB) was “Blockade”.
